Consider 5 molecules from ChEMBL document CHEMBL1201862, “PubChem BioAssay data set” (2004).

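Grown in 96-well plates, cells were treated for 48 hours with each compound at five concentrations. Insufficient inhibition: endpoint recorded as highest concentration tested. GI50 marks 50% less growth.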 Active and inactive are the calls of the source. Cut-off read from the data, not from the text of the source: active = GI50 up to about 1.1 µM and inactive = higher.

Some test systems named below: SK-MEL-28; OVCAR-4; K562; UACC-257; NCI-H226; MDA-N; SNB-19; SK-MEL-5; PC-3; HOP-92; OVCAR-8; 786-0; BT-549; HCT-15; SK-OV-3; SF-539; DU-145; NCI/ADR-RES; SF-268; HCT-116.
Holding throughout (assay): inhibition of tumour cell growth, NCI panel, 48 h

Take `Cn1c(-c2cccs2)cc(-c2cccs2)c1-c1ccsc1`: the GI50 with SK-MEL-28 was > 100 µM (inactive); with OVCAR-4, > 100 µM (inactive); in the assay on K562, > 100 µM (inactive); with UACC-257 it was 66.8 µM (inactive); with NCI-H226, > 100 µM (inactive); with MDA-N, > 100 µM (inactive). In addition, the GI50 with SNB-19 was 70.3 µM (inactive); with SK-MEL-5 it was 27.2 µM (inactive); in the assay on PC-3, > 100 µM (inactive); in the assay on HOP-92, > 100 µM (inactive); in the assay on OVCAR-8 it was > 100 µM (inactive); with 786-0, > 100 µM (inactive). Besides, the GI50 with BT-549 is > 100 µM (inactive); in the assay on HCT-15, 32.9 µM; with SK-OV-3, > 100 µM (inactive); in the assay with SF-539, > 100 µM (inactive); with DU-145 it was > 100 µM (inactive); in the assay with NCI/ADR-RES it was > 100 µM (inactive). Besides, the GI50 with SF-268 was > 100 µM (inactive); in the assay on HCT-116, 23.3 µM (inactive).
In the case of `Clc1ccc(-c2nc3cc(Cl)ccc3[nH]2)cc1`, the GI50 in the assay with SK-MEL-28 was 47.9 µM (inactive); in the assay on OVCAR-4, 58.1 µM (inactive); in the assay with K562, 38.9 µM (inactive); in the assay on UACC-257, 43.3 µM (inactive); with NCI-H226, 50 µM (inactive); in the assay with MDA-N, 29.1 µM (inactive). For the same molecule, the GI50 was 41.4 µM (inactive) with SNB-19; 32.7 µM (inactive) in the assay on SK-MEL-5; 27.2 µM (inactive) with PC-3; 27.7 µM (inactive) in the assay on HOP-92; 37.6 µM (inactive) in the assay with OVCAR-8; 35.2 µM (inactive) with 786-0. The GI50 in the assay with BT-549 was 32.2 µM (inactive); in the assay on HCT-15 it was 30.3 µM; in the assay on SK-OV-3, 39.3 µM (inactive); in the assay with SF-539 it was 22.6 µM (inactive); in the assay with DU-145, 31.8 µM (inactive); with NCI/ADR-RES, 19.9 µM (inactive). Besides, the GI50 in the assay with SF-268 is 45.5 µM (inactive); with HCT-116 it was 22.9 µM (inactive).
Consider `O=C1/C(=C/c2ccccc2)N=C(c2ccccc2)N1n1c(-c2ccccc2)nc2ccccc2c1=O`, for which the GI50 in the assay with SK-MEL-28 was 74.3 µM (inactive); with OVCAR-4, 60 µM (inactive); with K562, 61.7 µM (inactive); with UACC-257, > 100 µM (inactive); with NCI-H226, 64 µM (inactive); with MDA-N it was 54.8 µM (inactive). Further, the GI50 is 52.8 µM (inactive) in the assay on SNB-19; 38 µM (inactive) in the assay on SK-MEL-5; 57.7 µM (inactive) with PC-3; 97.5 µM (inactive) in the assay on HOP-92; > 100 µM (inactive) in the assay with OVCAR-8; > 100 µM (inactive) in the assay with 786-0. Also, the GI50 is 31.6 µM (inactive) in the assay with BT-549; 72.4 µM in the assay with HCT-15; > 100 µM (inactive) with SK-OV-3; 83 µM (inactive) in the assay on SF-539; 83 µM (inactive) with DU-145; 63.8 µM (inactive) in the assay on NCI/ADR-RES. In addition, the GI50 was 64.6 µM (inactive) in the assay on SF-268 and 53 µM (inactive) with HCT-116.
Consider `CCO[C@@]12CCC3CC4CC[C@@](OCC)(O1)C4C32` (stereo not given in full), for which the GI50 with SK-MEL-28, in the assay on OVCAR-4, in the assay with K562, in the assay on UACC-257, with NCI-H226 and in the assay with MDA-N was > 100 µM (inactive) in each case. Also, the GI50 in the assay on SNB-19, with SK-MEL-5, with PC-3, with HOP-92, in the assay with OVCAR-8 and in the assay with 786-0 was > 100 µM (inactive) throughout. In addition, the GI50 was > 100 µM (inactive) in the assay with BT-549; greater than 100 µM in the assay with HCT-15; > 100 µM (inactive) with SK-OV-3; > 100 µM (inactive) with SF-539; > 100 µM (inactive) in the assay on DU-145; > 100 µM (inactive) with NCI/ADR-RES. In addition, the GI50 in the assay on SF-268 and in the assay on HCT-116 was > 100 µM (inactive) each time.
On to `COc1cc(C)cc2c(-c3c(O)cc(O)c4c3C[C@H](C)N[C@H]4C)cc(-c3cc(-c4c(O)cc(O)c5c4C[C@H](C)N[C@H]5C)c4cc(C)cc(OC)c4c3O)c(O)c12`, for which the GI50 is > 100 µM (inactive) in the assay on SK-MEL-28; > 100 µM (inactive) with OVCAR-4; > 100 µM (inactive) in the assay with K562; > 100 µM (inactive) in the assay with UACC-257; > 100 µM (inactive) in the assay on NCI-H226; 52 µM (inactive) in the assay with MDA-N. Besides, the GI50 in the assay with SNB-19 is > 100 µM (inactive); in the assay on SK-MEL-5 it was > 100 µM (inactive); in the assay with PC-3, > 100 µM (inactive); in the assay on HOP-92, > 100 µM (inactive); with OVCAR-8, > 100 µM (inactive); in the assay with 786-0, 26.9 µM (inactive). Further, the GI50 was > 100 µM (inactive) in the assay with BT-549; greater than 100 µM in the assay with HCT-15; > 100 µM (inactive) in the assay with SK-OV-3; > 100 µM (inactive) in the assay on SF-539; > 100 µM (inactive) with DU-145; > 100 µM (inactive) in the assay on NCI/ADR-RES. Moreover, the GI50 was > 100 µM (inactive) in the assay with SF-268 and 54.1 µM (inactive) in the assay on HCT-116.
